Experimental data published in ChEMBL document CHEMBL1158095, “Trungapeptins A-C, cyclodepsipeptides from the marine cyanobacterium Lyngbya majuscula” (J Nat Prod, 2006).
Activity calls are given as the source filed them. The rule behind the calls is not given here.

Tests used:
[1] = tested on: KB; assay: Cytotoxicity against human KB cells at 10 ug/mL; type: functional, cell-based
[2] = tested on: LoVo; assay: Cytotoxicity against human LoVo cells at 10 ug/mL; type: functional, cell-based

With `C#CCCC[C@H]1OC(=O)[C@H]([C@@H](C)CC)NC(=O)[C@@H]2CCCN2C(=O)[C@H](Cc2ccccc2)OC(=O)[C@H](C(C)C)N(C)C(=O)[C@H](C(C)C)NC(=O)[C@H]1C` the Activity [1] was “inactive” and the Activity [2] was “inactive”.
